Activity calls are given as the source filed them. No cut-off for these calls is given here. Positions of bridges follow the written chain, without caps; N, C: chain ends. Residues, ends and D or L forms follow the SMILES beside them.
Key:
[1] = test system: MDA-MB-231; assay: Activation of CD95 cell death pathway in Fas-resistant human MDA-MB-231 cells pretreated for 6 hrs followed by treated with anti-Fas antibody assessed as increase in CD95 expression measured after 24 hrs by FACS analysis; assay type: functional, cell-based
[2] = Cytotoxicity against human ABC-TC3995 cells assessed as cell death in presence of docetaxel measured by MTT assay; assay type: functional, cell-based
[3] = test system: MDA-MB-231; assay: In vivo antitumor activity against human MDA-MB-231 cells expressing FLuc-EGFP fusion protein xenografted in NOD-SCID mouse assessed as loss of cellularity of tumor at 200 mg/kg, ip measured upto day 13 by H and E staining based assay; assay type: functional, organism-based
[4] = Cytotoxicity against human ABC-TC3995 cells assessed as cell death measured by MTT assay; assay type: functional, cell-based
[5] = test system: MDA-MB-231; assay: Cytotoxicity against human MDA-MB-231 cells assessed as cell death in presence of doxorubicin measured by MTT assay; assay type: functional, cell-based
[6] = test system: DU-145; assay: Cytotoxicity against human DU-145 cells assessed as cell death in presence of doxorubicin measured by MTT assay; assay type: functional, cell-based
[7] = test system: PC-3; assay: Cytotoxicity against human PC-3 cells assessed as dead cells measured after 24 to 72 hrs by FACS based Calcein A/EtBr-dimer LIVE/DEAD cell staining kit; assay type: functional
[8] = Toxicity in NOD-SCID mouse xenografted in human MDA-MB-231 cells assessed as heart histology at 200 mg/kg, ip measured upto day 13 by H and E staining based assay; assay type: organism-based; conditions: in vivo
[9] = test system: PC-3; assay: Cytotoxicity against human PC-3 cells assessed as cell death in presence of doxorubicin measured by MTT assay; assay type: functional, cell-based
[10] = test system: MDA-MB-231; assay: Synergistic cytotoxicity against Fas-resistant human MDA-MB-231 cells assessed as cell death at 10 uM in presence of 3 ug/ml doxorubicin measured after 24 to 72 hrs by fluorescent microscopy; assay type: functional; conditions: time 24-72 hrs
[11] = Toxicity in NOD-SCID mouse xenografted in human MDA-MB-231 cells assessed as kidney histology at 200 mg/kg, ip measured upto day 13 by H and E staining based assay; assay type: organism-based; conditions: in vivo, 312 h, time 13 day
[12] = test system: PC-3; assay: Cytotoxicity against human PC-3 cells assessed as cell death in presence of docetaxel measured by MTT assay; assay type: functional, cell-based
[13] = test system: MDA-MB-231; assay: In vivo antitumor activity against human MDA-MB-231 cells expressing FLuc-EGFP fusion protein xenografted in NOD-SCID mouse assessed as tumor regression at 100 mg/kg, ip measured upto day 13 by optical imaging based assay relative to control; assay type: functional, organism-based; conditions: time 13.0 day
[14] = test system: DU-145; assay: Cytotoxicity against human DU-145 cells assessed as cell death measured by MTT assay; assay type: functional, cell-based
[15] = Cytotoxicity against human iPSC cells assessed as cell death in presence of doxorubicin measured by MTT assay; assay type: functional, cell-based
[16] = test system: PC-3; assay: Cytotoxicity against human PC-3 cells assessed as dead cells at 60 uM measured after 24 to 72 hrs by FACS based Calcein A/EtBr-dimer LIVE/DEAD cell staining kit; assay type: functional; conditions: time 24-72 hrs
[17] = test system: LNCaP; assay: Cytotoxicity against human LnCAP cells assessed as cell death in presence of doxorubicin measured by MTT assay; assay type: functional, cell-based
[18] = test system: PC-3; assay: Cytotoxicity against human PC-3 cells assessed as cell death measured by MTT assay; assay type: functional, cell-based
[19] = Cytotoxicity against human iPSC cells assessed as cell death measured by MTT assay; assay type: functional, cell-based
[20] = Toxicity in NOD-SCID mouse xenografted in human MDA-MB-231 cells assessed as liver histology at 200 mg/kg, ip measured upto day 13 by H and E staining based assay; assay type: organism-based; conditions: in vivo
[21] = test system: MDA-MB-231; assay: Cytotoxicity against human MDA-MB-231 cells assessed as cell death measured by MTT assay; assay type: functional, cell-based
[22] = test system: PC-3; assay: Cytotoxicity against human PC-3 cells assessed as dead cells at 30 uM measured after 24 to 72 hrs by FACS based Calcein A/EtBr-dimer LIVE/DEAD cell staining kit; assay type: functional; conditions: time 24-72 hrs
[23] = test system: MDA-MB-231; assay: In vivo antitumor activity against human MDA-MB-231 cells expressing FLuc-EGFP fusion protein xenografted in NOD-SCID mouse assessed as tumor regression at 200 mg/kg, ip measured upto day 13 by optical imaging based assay relative to control; assay type: functional, organism-based; conditions: time 13.0 day
[24] = test system: MDA-MB-231; assay: Cytotoxicity against human MDA-MB-231 cells assessed as cell death in presence of docetaxel measured by MTT assay; assay type: functional, cell-based
[25] = Cytotoxicity against human ABC-TC3995 cells assessed as cell death in presence of doxorubicin measured by MTT assay; assay type: functional, cell-based
[26] = Cytotoxicity against human iPSC cells assessed as cell death in presence of docetaxel measured by MTT assay; assay type: functional, cell-based
[27] = test system: DU-145; assay: Cytotoxicity against human DU-145 cells assessed as cell death in presence of docetaxel measured by MTT assay; assay type: functional, cell-based
[28] = test system: MDA-MB-231; assay: In vivo antitumor activity against human MDA-MB-231 cells expressing FLuc-EGFP fusion protein xenografted in NOD-SCID mouse assessed as tumor regression at 50 mg/kg, ip measured upto day 13 by optical imaging based assay relative to control; assay type: functional, organism-based; conditions: time 13.0 day
[29] = test system: LNCaP; assay: Cytotoxicity against human LNCaP cells assessed as cell death measured by MTT assay; assay type: functional, cell-based
[30] = test system: MDA-MB-231; assay: Synergistic cytotoxicity against Fas-resistant human MDA-MB-231 cells assessed as cell death at 10 uM in presence of 1 to 3 ug/ml doxorubicin measured after 24 to 72 hrs by fluorescent microscopy; assay type: functional, cell-based; conditions: time 24-72 hrs
[31] = test system: LNCaP; assay: Cytotoxicity against human LNCaP cells assessed as cell death in presence of docetaxel measured by MTT assay; assay type: functional, cell-based

CC[C@H](C)[C@H](NC(=O)[C@H](CCCCN)NC(=O)[C@@H](NC(=O)[C@H](Cc1ccccc1)NC(=O)[C@@H](NC(=O)[C@@H]1CCCN1C(=O)[C@H](CS)NC(=O)[C@H](C)NC(=O)[C@H](CO)NC(=O)[C@H](Cc1ccc(O)cc1)NC(=O)[C@H](CC(C)C)NC(=O)[C@H](CS)NC(=O)[C@H](CCC(N)=O)NC(=O)CNC(=O)CNC(=O)[C@H](CO)NC(=O)[C@H](CO)NC(=O)[C@@H](NC(=O)[C@H](CS)NC(=O)[C@H](CC(N)=O)NC(=O)[C@H](Cc1ccc(O)cc1)NC(=O)[C@H](Cc1c[nH]cn1)NC(=O)[C@@H](N)CC(=O)O)C(C)C)[C@@H](C)CC)[C@@H](C)O)C(=O)N[C@@H](CCC(N)=O)C(=O)NCC(=O)N[C@H](C(=O)N[C@@H](CS)C(=O)N[C@@H](Cc1ccc(O)cc1)C(=O)N[C@@H](CCCNC(=N)N)C(=O)NCC(=O)N[C@@H](CCCCN)C(=O)N[C@@H](C)C(=O)N[C@@H](CCCCN)C(=O)N[C@@H](CS)C(=O)N[C@@H](CS)C(=O)N[C@@H](CCCCN)C(=O)O)[C@@H](C)O (H-DHYNCVSSGGQCLYSACPIFTKIQGTCYRGKAKCCK-OH)
Activity [1]: inactive

CC[C@H](C)[C@@H]1NC(=O)[C@H](CCCCN)NC(=O)[C@H]([C@@H](C)O)NC(=O)[C@H](Cc2ccccc2)NC(=O)[C@H]([C@@H](C)CC)NC(=O)[C@@H]2CCCN2C(=O)[C@@H]2CSSC[C@@H]3NC(=O)[C@H](CCCCN)NC(=O)[C@H](C)NC(=O)[C@H](CCCCN)NC(=O)CNC(=O)[C@H](CCCNC(=N)N)NC(=O)[C@H](Cc4ccc(O)cc4)NC(=O)[C@H](CSSC[C@H](NC(=O)[C@H](CCC(N)=O)NC(=O)CNC(=O)CNC(=O)[C@H](CO)NC(=O)[C@H](CO)NC(=O)[C@H](C(C)C)NC(=O)[C@@H](NC(=O)[C@H](CC(N)=O)NC(=O)[C@H](Cc4ccc(O)cc4)NC(=O)[C@H](Cc4c[nH]cn4)NC(=O)[C@@H](N)CC(=O)O)CSSC[C@@H](C(=O)N[C@@H](CCCCN)C(=O)O)NC3=O)C(=O)N[C@@H](CC(C)C)C(=O)N[C@@H](Cc3ccc(O)cc3)C(=O)N[C@@H](CO)C(=O)N[C@@H](C)C(=O)N2)NC(=O)[C@H]([C@@H](C)O)NC(=O)CNC(=O)[C@H](CCC(N)=O)NC1=O (H-DHYNCVSSGGQCLYSACPIFTKIQGTCYRGKAKCCK-OH; disulfide 5-35, 12-27, 17-34)
IC50 [2]: 78.6 µM
Activity [3]: Active
IC50 [4]: > 250 µM
IC50 [5]: 3.8 µM
IC50 [6]: 0.25 µM
IC50 [7]: 20 µM
Activity [8]: Non-Toxic
IC50 [9]: 0.95 µM
Activity [1]: Dose-Dependent Effect
Activity [10]: >90%
Activity [11]: Non-Toxic
IC50 [12]: 1.2 µM
Activity [13]: Active
IC50 [14]: 5.8 µM
IC50 [15]: 94.5 µM
Activity [16]: 97.2%
IC50 [17]: 0.11 µM
IC50 [18]: 26.5 µM
IC50 [19]: > 250 µM
Activity [20]: Non-Toxic
IC50 [21]: 24.5 µM
Activity [22]: 63.4%
Activity [23]: Active
IC50 [24]: 6.5 µM
IC50 [25]: 89.5 µM
IC50 [26]: 84.5 µM
IC50 [27]: 0.45 µM
Activity [28]: inactive
IC50 [29]: 12.4 µM
Activity [30]: Active
IC50 [31]: 0.15 µM

CC(=O)O[C@@]12CO[C@@H]1C[C@H](O)[C@@]1(C)C(=O)[C@H](O)C3=C(C)[C@@H](OC(=O)[C@H](O)[C@@H](NC(=O)OC(C)(C)C)c4ccccc4)C[C@@](O)([C@@H](OC(=O)c4ccccc4)[C@H]21)C3(C)C [DOCETAXEL ANHYDROUS]
IC50 [4]: 16.5 µM
IC50 [14]: 5.4 µM
IC50 [18]: 12.5 µM
IC50 [19]: 18.6 µM
IC50 [21]: 38.9 µM
IC50 [29]: 12.3 µM

COc1cccc2c1C(=O)c1c(O)c3c(c(O)c1C2=O)C[C@@](O)(C(=O)CO)C[C@@H]3O[C@H]1C[C@H](N)[C@H](O)[C@H](C)O1 [DOXORUBICIN]
IC50 [4]: 12.5 µM
IC50 [14]: 12.4 µM
IC50 [18]: 17.5 µM
IC50 [19]: 6.8 µM
IC50 [21]: 46.5 µM
IC50 [29]: 1.07 µM
